Legend:
[1] = test system: Oct-4 expression, primary human lung cells; assay: Quantitative RT-PCR of Oct-4 in primary human lung cells grown with VPA; format: cell-based; details: 5 mM VPA, three days, p<0.01
Experimental: (§1) Cell culture. Primary human lung cells were purchased from Cell Applications (San Diego, Calif.), and were maintained at 37° C. in 95% humidity and 5% CO2 in Dulbecco's modified eagle medium (DMEM, Hyclone) containing 10% fetal bovine serum (FBS, Hyclone) and 0.5% penicillin and streptomycin. Cells were grown in the presence of 1 mM VPA, 5 mM VPA or in the absence of VPA for three days.
Quantitative RT-PCR. Expression of Oct-4 and Nanog were determined by real-time RT-PCR for each culture condition (0 mM VPA, 1 mM VPA, and 5 mM VPA). Briefly, total RNA was prepared from cultures using Trizol Reagent (Life Technologies, Gaithersburg, Md.) and RNeasy Mini kit (Qiagen; Valencia, Calif.) with DNase I digestion according to manufacturer's protocol. Total RNA (1 μg) from each sample was subjected to oligo(dT)-primed reverse transcription (Invitrogen; Carlsbad, Calif.). Real-time PCR reactions will be performed with PCR master mix on a 7300 real-time PCR system (Applied Biosystems; Foster City, Calif.). For each sample, 1 μl of diluted cDNA (1:10) will be added as template in PCR reactions. The expression level of Oct-4 and Nanog was normalized to GAPD.

[2] = test system: stemness genes, primary human lung cells; assay: Human Embryonic Taqman Low Density Array (TLDA) analysis of stemness genes in VPA-treated cells; format: cell-based; details: 5 mM VPA, three days
Experimental: as §1
Embryonic Taqman Low Density Array Analysis. Expression levels of several genes that contribute to a cell being pluripotentail (“stemness genes”) were determined using the Human Embryonic Taqman Low Density Array Analysis (TLDA). Several stemness genes were analyzed: GABRB3, LEFTB, NR6A1, PODXL, and PTEN. In addition, the expression level of the DNA methyl transferase DNMT3B was determined. The Applied Biosystems Human Embryonic TLDA, which contains 90 embryonic stem cell and developmental genes and 6 endogenous control genes, was used for quantitative real time RT-PCR to quantify relative expression levels (Applied Biosytems, Foster City, Calif.). Briefly, following reverse-transcription of RNA using the ABI High Capacity cDNA Reverse Transcription Kit (ABI; Foster City, Calif.), 150 ng sample cDNA in 50 μl nuclease-free water+50 μl ABI Universal Taqman 2×PCR Master Mix was pipetted into each port of the TLDA microfluidic card, and analyzed on the ABI 7900HT Fast Real Time PCR System. The ^ΔΔCT method was used to calculate relative quantities (fold change) in gene expression levels in treated cells relative to untreated control cells. The treated cells may also be compared to federally-approved human embryonic stem cells.

[3] = test system: first exon of the Oct-4 gene; assay: Bisulfite sequencing of the Oct-4 promoter/first exon; format: cell-based; details: VPA-treated primary human lung cells
Experimental: as §1
Bisulfite Sequencing. Bisulfite sequencing is the use of bisulfite treatment of DNA to determine the pattern of methylation. Bisulfite sequencing is based on the fact that treatment of DNA with bisulfite converts cytosine residues to uracil, but leaves 5-methylcytosine residues unaffected. Bisulfite treatment thus introduces specific changes in the DNA sequence that depend on the methylation status of individual cytosine residues, yielding very high-resolution information about the methylation status of a segment of DNA.
Methylation of pluripotent gene promoters was analyzed by bisulfite sequencing. Briefly, DNA was purified by phenolchloroform-isoamylalcohol extraction. Bisulfite conversion was performed using the EZ DNA Methylation kit following the manufacturer's protocol (Zymo Research; Orange, Calif.). The conversion rate of all cytosines in non-CpG dinucleotides to uracils was 100%. Converted DNA was amplified by PCR using primers for human Oct3/4, Nanog, and SOX2. […]

[4] = test system: Oct-4 gene expression, HLFa; assay: Small molecules, Oct-4 gene expression by qRT-PCR (Table III), HLFa; format: cell-based, human; details: dose 5 mM, Rx Time 5
[5] = test system: Oct-4 gene expression, HLFf; assay: Small molecules, Oct-4 gene expression by qRT-PCR (Table III), HLFf; format: cell-based, human; details: dose 5 mM, Rx Time 5
[6] = test system: Sox-2 and Nanog gene expression, human dermal fibroblasts; assay: VPA effect on Sox-2 and Nanog gene expression in human dermal fibroblasts (FIG. 17); format: cell-based; details: VPA 5 mM, 4-6 days, multiple dermal fibroblast cell types
Experimental: FIG. 17 is a bar graph reporting the effects of VPA (5 mM) on gene expression of Oct-4, Sox-2 and Nanog in human dermal fibroblasts. Significance relative to control within each cell type: *p<0.05; **p<0.03; and ***p<0.01.
Quantitative RT-PCR. Expression of Oct-4 was determined by real-time RT-PCR. Briefly, total RNA was prepared from cultures using Trizol Reagent (Life Technologies, Gaithersburg, Md.) and RNeasy Mini kit (Qiagen; Valencia, Calif.) with DNase I digestion according to manufacturer's protocol. Total RNA (1 μg) from each sample was subjected to oligo(dT)-primed reverse transcription (Invitrogen; Carlsbad, Calif.). Real-time PCR reactions will be performed with PCR master mix on a 7300 real-time PCR system (Applied Biosystems; Foster City, Calif.). For each sample, 1 μl of diluted cDNA (1:10) will be added as template in PCR reactions. The expression level of Cot-4 was normalized to glyceraldehyde 3-phosphate-dehydrogenase (GAPD).
Pluripotency gene expression was increased in multiple dermal fibroblast cell types following exposure to VPA for 4-6 days. mRNA levels were determined by real time qRT-PCR and normalized with GAPDH.

[7] = test system: HDAC and DNMT1 gene expression, BJ dermal fibroblasts; assay: VPA effect on HDAC and DNMT1 gene expression in BJ dermal fibroblasts (FIG. 18); format: cell-based, human; details: 500 μM VPA, 7 days, BJFs; HDAC1 p<0.01, SIRT4 p 0.05, DNMT1 p<0.005
Experimental: FIG. 18 is a bar graph reporting the effects of VPA (500 μM) on HDAC and DNMT1 gene expression in BJ dermal fibroblasts (obtained from ATCC).
FIG. 18 reports the effects of 500 μM VPA on HDAC and DNMT1 gene expression in BJFs. Cells were exposed to VPA for 7 days. […] Statistical significance was as follows: HDAC1 (p<0.01); SIRT4 (p, 0.05) and DNMT1 (p<0.005).

SMILES: CCCC(CCC)C(=O)O [VPA, valproic acid]
- expression of Oct4 up-regulated compared to control cells [1]: ~2.7 fold
- expression of DNA methyltransferase DNMT3B [2]: down-regulated
- stemness-related genes not detected in control cells (FOXD3, NR5A2, TERT, LIFR, SFRP2, TFCP2L1, LIN28, SOX2, XIST) [2]: induced
- expression of stemness genes GABRB3, LEFTB, NR6A1, PODXL, PTEN ([2]; n=three replicates): up-regulation
- methylation of cytosines in the first exon of Oct-4 [3]: demethylation of two cytosines
- Oct4 FC [4]: 4
- Oct4 FC [5]: 5
- expression of Sox-2 and Nanog [6]: increase in expression
- HDAC1, SIRT4 and DNMT1 gene expression compared to control cells [7]: significantly u-regulated
